In patent US8513303B2, “Antimicrobial agent” (De Montfort University, priority 2007, dated 2013):

Experiments:
Format in all cases: cell-based
[1] = system: Staphylococcus aureus ATCC 6538; test: Antimicrobial activity of PAN catalyst during reuse; settings: room temperature, 1% w/v H2O2, no air
Procedure: (§1) PAN catalyst was assessed for antimicrobial activity at first use, 48 hours after first use, 48 hours after second use and six months after first use using the same experimental conditions as described previously (see testing antimicrobial activity section).

[2] = system: Escherichia coli ATCC 10536; test: as above; settings: 0.2% w/v H2O2, no air
Procedure: as §1

[3] = system: Escherichia coli ATCC 10536; test: Quantitative suspension test, log10 reduction in bacterial numbers; settings: 0.2% w/v H2O2
Description: Neutralisation (nullification of activity) of antimicrobial agents is required to prevent inhibitory concentrations from being transferred to the recovery medium (as discussed, for example, in Russell A. D. (2004) Factors influencing the efficacy of antimicrobial agents in Principles and Practice of Disinfection Preservation and Sterilization, 4th edition, eds Fraise A. P., Lambert P. A. and Maillard J. Y., pages 98-127, Oxford: Blackwell Publishing Ltd. and Russell A. D., Ahonkhai I. and Rogers, D. T. (1979) A review: microbiological applications of the inactivation of antibiotics and other antimicrobial agents. Journal of Applied Bacteriology, 46, 207-245). Thus, samples were removed at desired time points and then any hydrogen peroxide present in the sample was neutralised (i.e. deactivated) using catalase.
In the examples, catalase from bovine liver was used to neutralise the activity of any remaining hydrogen peroxide (as described in Russell A. D., Ahonkhai I. and Rogers, D. T. (1979), A review: microbiological applications of the inactivation of antibiotics and other antimicrobial agents, Journal of Applied Bacteriology, 46, 207-245) after the appropriate contact time during the experiments. Control experiments were conducted to establish whether the neutraliser nullified the activity of hydrogen peroxide and whether the neutraliser was toxic to the micro-organisms tested.
The effect of acidic pH conditions (pH 3.47 to 3.54) were investigated with and without hydrogen peroxide and air.
A quantitative suspension test (as described in Reybrouck G. (1998), The testing of disinfectants, International Biodeterioration and Biodegradation, 41, 269-272) based on the general principles of European quantitative suspension tests (BS EN1040:2005: Chemical disinfectants and antiseptics, Quantitative suspension test for the evaluation of basic bactericidal activity of chemical disinfectants and antiseptics, Test method and requirements (phase 1), London: British Standards Institute; BS EN 1276:1997: Chemical disinfectants and antiseptics, Quantitative suspension test for the evaluation of bactericidal activity of chemical disinfectants and antiseptics used in food, industrial, domestic, and institutional areas, Test method and requirements (phase 2, step 1). London: British Standards Institute) was used to establish the basic level of activity of the catalyst in the absence of organic matter. All tests were performed independently at least three times unless otherwise stated. Low concentrations (0.2-1% w/v) of hydrogen peroxide were used so that increases in antimicrobial activity could be detected if present.
Bacteria were inoculated into 10 ml volumes of nutrient broth and incubated at 37° C. for 18 to 24 hours at a shaking speed of 100 revolutions/minute. After incubation, the bacteria were washed by centrifugation to remove the nutrient broth; supernatants were discarded and the bacterial pellets were resuspended in sterilised distilled water. 7.5 ml of the washed bacterial suspension was added to 67.5 ml of hydrogen peroxide and/or distilled water to give a specific final concentration (ranging from 0 to 1% w/v—see Tables below) of hydrogen peroxide and approximately 8 log10 colony forming units (CFU)/mL of bacteria. The resultant mixture was stirred magnetically throughout the experiment. Where applicable, 1 g (+/−0.1 g) of either modified PAN fibre (referred to as PAN1 (control) or PAN2 (control)) or catalyst (referred to as PAN1 catalyst or PAN2 catalyst or PAN3 catalyst) comprising PAN fibres was added to the resultant mixture. The experiments were performed with or without air. If air was used, 2.5 L/min was supplied via. a filtered air pump and a sterilised Pyrex gas distribution tube.
After a specific contact time (see Tables below), 1 ml aliquots were removed from the experimental flask and transferred into 9 ml of neutraliser (catalase) for 5 minutes to inactivate any remaining hydrogen peroxide.

## OO [Example H2O2, hydrogen peroxide]
[1]; 10 min
  Mean log10 reduction in CFU/ml: 0.54 log10 CFU/ml
[1]; 20 min
  Mean log10 reduction in CFU/ml: 1.18 log10 CFU/ml
[1]; 30 min
  Mean log10 reduction in CFU/ml: 2.68 log10 CFU/ml
[1]; 40 min
  Mean log10 reduction in CFU/ml: 3.56 log10 CFU/ml
[1]; 50 min
  Mean log10 reduction in CFU/ml: 4.62 log10 CFU/ml
[1]; 60 min
  Mean log10 reduction in CFU/ml: 5.08 log10 CFU/ml
[2]; 35° C., 10 min
  Mean log10 reduction in CFU/ml: 2.46 log10 CFU/ml
[2]; 35° C., 20 min
  Mean log10 reduction in CFU/ml: 3.77 log10 CFU/ml
[2]; 35° C., 30 min
  Mean log10 reduction in CFU/ml: ≧5.30 log10 CFU/ml
[2]; 35° C., 30 min, listed as hydrogen peroxide
  Mean log10 reduction in CFU/ml: greater than or equal to 5.30 log10 CFU/ml
[2]; 35° C., 40 min
  Mean log10 reduction in CFU/ml: >5.50 log10 CFU/ml
[2]; 35° C., 50 min
  Mean log10 reduction in CFU/ml: >5.50 log10 CFU/ml
[2]; 35° C., 60 min
  Mean log10 reduction in CFU/ml: >5.50 log10 CFU/ml
[2]; room temperature, 10 min
  Mean log10 reduction in CFU/ml: 1.01 log10 CFU/ml
[2]; room temperature, 20 min
  Mean log10 reduction in CFU/ml: 2.08 log10 CFU/ml
[2]; room temperature, 30 min
  Mean log10 reduction in CFU/ml: 3.28 log10 CFU/ml
[2]; room temperature, 40 min
  Mean log10 reduction in CFU/ml: 4.00 log10 CFU/ml
[2]; room temperature, 50 min
  Mean log10 reduction in CFU/ml: 5.17 log10 CFU/ml
[2]; room temperature, 60 min
  Mean log10 reduction in CFU/ml: >5.50 log10 CFU/ml
[3]; air 2.5 L/min, 10 min
  Mean log10 reduction in CFU/ml: 1.33 (0.27) log10 CFU/ml
[3]; air 2.5 L/min, 20 min
  Mean log10 reduction in CFU/ml: 2.68 (0.22) log10 CFU/ml
[3]; air 2.5 L/min, 30 min
  Mean log10 reduction in CFU/ml: 3.98 (0.28) log10 CFU/ml
[3]; air 2.5 L/min, 40 min
  Mean log10 reduction in CFU/ml: 4.79 (0.43) log10 CFU/ml
[3]; air 2.5 L/min, 50 min
  Mean log10 reduction in CFU/ml: >5.58 (0) log10 CFU/ml
[3]; air 2.5 L/min, 50 min, listed as hydrogen peroxide
  Mean log10 reduction in CFU/ml: greater than 5 log10 CFU/ml
[3]; air 2.5 L/min, 60 min
  Mean log10 reduction in CFU/ml: >5.58 (0) log10 CFU/ml
[3]; no air, 10 min
  Mean log10 reduction in CFU/ml: 1.01 (0.36) log10 CFU/ml
[3]; no air, 20 min
  Mean log10 reduction in CFU/ml: 2.20 (0.42) log10 CFU/ml
[3]; no air, 30 min
  Mean log10 reduction in CFU/ml: 2.67 (0.52) log10 CFU/ml
[3]; no air, 40 min
  Mean log10 reduction in CFU/ml: 3.52 (0.57) log10 CFU/ml
[3]; no air, 50 min
  Mean log10 reduction in CFU/ml: 4.21 (0.19) log10 CFU/ml
[3]; no air, 60 min
  Mean log10 reduction in CFU/ml: 4.76 (0.39) log10 CFU/ml
[3]; no air, 60 min, listed as hydrogen peroxide
  Mean log10 reduction in CFU/ml: 4.76 log10 CFU/ml
[3]; acidic pH 3.47 to 3.54, air 2.5 L/min, 10 min
  Mean log10 reduction in CFU/ml: 2.16 log10 CFU/ml
[3]; acidic pH 3.47 to 3.54, air 2.5 L/min, 20 min
  Mean log10 reduction in CFU/ml: 3.35 log10 CFU/ml
[3]; acidic pH 3.47 to 3.54, air 2.5 L/min, 30 min
  Mean log10 reduction in CFU/ml: 4.46 log10 CFU/ml
[3]; acidic pH 3.47 to 3.54, air 2.5 L/min, 40 min
  Mean log10 reduction in CFU/ml: ≧5.46 log10 CFU/ml
[3]; acidic pH 3.47 to 3.54, air 2.5 L/min, 40 min, listed as hydrogen peroxide
  Mean log10 reduction in CFU/ml: greater than 5 log10 CFU/ml
[3]; acidic pH 3.47 to 3.54, air 2.5 L/min, 50 min
  Mean log10 reduction in CFU/ml: >5.46 log10 CFU/ml
[3]; acidic pH 3.47 to 3.54, air 2.5 L/min, 60 min
  Mean log10 reduction in CFU/ml: >5.46 log10 CFU/ml
[3]; acidic pH 3.47 to 3.54, no air, 10 min
  Mean log10 reduction in CFU/ml: 2.43 log10 CFU/ml
[3]; acidic pH 3.47 to 3.54, no air, 20 min
  Mean log10 reduction in CFU/ml: 3.40 log10 CFU/ml
[3]; acidic pH 3.47 to 3.54, no air, 30 min
  Mean log10 reduction in CFU/ml: 4.21 log10 CFU/ml
[3]; acidic pH 3.47 to 3.54, no air, 40 min
  Mean log10 reduction in CFU/ml: ≧5.11 log10 CFU/ml
[3]; acidic pH 3.47 to 3.54, no air, 40 min, listed as hydrogen peroxide
  Mean log10 reduction in CFU/ml: greater than 5 log10 CFU/ml
[3]; acidic pH 3.47 to 3.54, no air, 50 min
  Mean log10 reduction in CFU/ml: ≧5.30 log10 CFU/ml
[3]; acidic pH 3.47 to 3.54, no air, 60 min
  Mean log10 reduction in CFU/ml: >5.46 log10 CFU/ml
